From US9237996B2, “Glucosyltransferase inhibitor containing epigallocatechin gallate polymer as active ingredient” (priority 2008, dated 2016)

Assays:
[1] = molecular target: T1, glucosyltransferase B (GTFB) (Streptococcus mutans serotype c, UniProt P08987); experiment: Glucosyltransferase inhibitory activity, turbidity (550 nm) of water-insoluble glucan, rGTFB; type: biochemical; settings: 37° C. overnight
T1 construct: made in house; host or cells: Escherichia coli XL-2 harboring plasmid pSK6
T1 sequence (P08987 35-1476): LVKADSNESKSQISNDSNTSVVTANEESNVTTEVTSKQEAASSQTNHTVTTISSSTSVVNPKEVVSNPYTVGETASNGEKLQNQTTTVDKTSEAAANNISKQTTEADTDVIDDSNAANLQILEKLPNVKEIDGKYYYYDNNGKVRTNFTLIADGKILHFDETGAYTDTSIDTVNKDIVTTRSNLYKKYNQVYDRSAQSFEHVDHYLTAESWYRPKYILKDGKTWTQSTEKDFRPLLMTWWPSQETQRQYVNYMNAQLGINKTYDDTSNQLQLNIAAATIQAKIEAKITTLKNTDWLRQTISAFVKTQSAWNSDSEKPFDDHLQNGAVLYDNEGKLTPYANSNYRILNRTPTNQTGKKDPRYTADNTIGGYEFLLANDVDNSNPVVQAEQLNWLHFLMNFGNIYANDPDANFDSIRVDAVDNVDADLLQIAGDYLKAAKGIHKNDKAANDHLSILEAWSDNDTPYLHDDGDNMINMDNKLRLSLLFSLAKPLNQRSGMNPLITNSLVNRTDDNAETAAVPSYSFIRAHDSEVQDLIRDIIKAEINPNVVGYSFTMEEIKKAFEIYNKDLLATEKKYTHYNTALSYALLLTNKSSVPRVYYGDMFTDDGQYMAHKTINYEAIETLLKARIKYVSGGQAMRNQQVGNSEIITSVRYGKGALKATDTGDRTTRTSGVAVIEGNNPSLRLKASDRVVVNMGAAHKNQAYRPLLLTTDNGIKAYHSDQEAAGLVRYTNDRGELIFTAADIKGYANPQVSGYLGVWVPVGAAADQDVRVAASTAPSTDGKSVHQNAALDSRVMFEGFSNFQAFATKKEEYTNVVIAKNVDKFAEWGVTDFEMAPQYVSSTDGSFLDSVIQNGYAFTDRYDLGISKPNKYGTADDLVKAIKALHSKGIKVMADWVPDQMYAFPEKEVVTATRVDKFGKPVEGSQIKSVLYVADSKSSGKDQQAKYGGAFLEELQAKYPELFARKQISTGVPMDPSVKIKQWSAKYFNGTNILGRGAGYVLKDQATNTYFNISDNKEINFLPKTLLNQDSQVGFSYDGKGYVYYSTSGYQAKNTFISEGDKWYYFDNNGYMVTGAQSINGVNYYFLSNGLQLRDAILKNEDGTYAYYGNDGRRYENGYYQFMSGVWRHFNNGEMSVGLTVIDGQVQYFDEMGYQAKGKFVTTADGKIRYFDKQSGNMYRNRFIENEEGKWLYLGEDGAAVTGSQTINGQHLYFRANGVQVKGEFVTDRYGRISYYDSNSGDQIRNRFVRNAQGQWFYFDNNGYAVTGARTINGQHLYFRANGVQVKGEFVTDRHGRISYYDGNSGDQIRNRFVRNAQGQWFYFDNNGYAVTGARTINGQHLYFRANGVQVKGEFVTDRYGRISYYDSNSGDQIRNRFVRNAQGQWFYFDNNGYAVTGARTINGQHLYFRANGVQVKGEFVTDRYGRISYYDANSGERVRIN
Method: (§1) The glucosyltransferase inhibitory activity can be measured by using any one of the evaluation methods described in prior-art literatures set forth in Background Art. For example, glucosyltransferase prepared from Streptococcus mutans etc. is added to an aqueous solution containing sucrose, and incubated at about the same temperature (about 37° C.) as in the oral cavity for less than 24 hours, preferably about 16 to 20 hours to enzymatically produce glucan from sucrose. Since glucan is insoluble in water, the turbidity of the resultant reaction solution (for example, turbidity at a wavelength of 550 nm) is measured. In this manner, the yield of glucan can be evaluated. If the yield of glucan low (in other words, turbidity is low), it is said that glucosyltransferase activity is more inhibited than that of the case where the yield of glucan is large (in other words, turbidity is high).
rGTF was prepared by the method described in the paper of M. matsumoto et al, FEMS Microbiology Letters 228 (2003) 73-80. More specifically, Escherichia coli XL-2 strain harboring a plasmid pSK6 having a gene encoding glucosyltransferase B (GTFB) of Streptococcus mutans was subjected to shaking culture performed in Luria Bertani liquid medium containing ampicillin (100 μg/mL) and tetracycline (7.5 μg/mL) at 37° C. for 16 hours. Bacterial cells were collected by centrifugally separating the medium, suspended in a 10 mM phosphate buffer (pH 6.5) previously cooled and crushed by an ultrasonic generator (UD201 type, manufactured by Tomy Seiko Co., Ltd., Tokyo) under ice cooling. After crushed, precipitates were centrifugally removed at 12,000×g for 30 minutes. The resultant supernatant was used as glucosyltransferase B (rGTFB) and put in use in later experiments.
The rGTFB having a specific activity of 503 mU/mg protein and the rGTFC having a specific activity of 6.3 to 22.3 mU/mg protein were used as a mixture. […] Protein was quantified by using the bicinchonine acid method (BCA method) (BCA protein assay kit, manufactured by PIERCE).
(§2) With 2 mL of 0.1M KPB (pH6.0) containing 1% sucrose-containing 0.1% dextran T10, rGTFB or rGTFC (amount corresponding to 15 mU (average value)) obtained in Example 2, and each of the above samples (final concentration: 0.1 mg/mL) were mixed. […] The turbidity (550 nm) of the resultant reaction solution was measured to obtain the yield of glucan insoluble in water. […]
as §2, with “1% sucrose and” for “1% sucrose-containing”, “Example 2” for “Example 2,”, “concentration: 0.05” for “concentration: 0.1”

[2] = molecular target: T2, glucosyltransferase C (GTFC) (Streptococcus mutans serotype c, UniProt P13470); experiment: Glucosyltransferase inhibitory activity, turbidity (550 nm) of water-insoluble glucan, rGTFC; type: biochemical; settings: 37° C. overnight
T2 construct: made in house; host or cells: Escherichia coli XL-2 harboring a plasmid (printed as pSK6)
T2 sequence (P13470 35-1455): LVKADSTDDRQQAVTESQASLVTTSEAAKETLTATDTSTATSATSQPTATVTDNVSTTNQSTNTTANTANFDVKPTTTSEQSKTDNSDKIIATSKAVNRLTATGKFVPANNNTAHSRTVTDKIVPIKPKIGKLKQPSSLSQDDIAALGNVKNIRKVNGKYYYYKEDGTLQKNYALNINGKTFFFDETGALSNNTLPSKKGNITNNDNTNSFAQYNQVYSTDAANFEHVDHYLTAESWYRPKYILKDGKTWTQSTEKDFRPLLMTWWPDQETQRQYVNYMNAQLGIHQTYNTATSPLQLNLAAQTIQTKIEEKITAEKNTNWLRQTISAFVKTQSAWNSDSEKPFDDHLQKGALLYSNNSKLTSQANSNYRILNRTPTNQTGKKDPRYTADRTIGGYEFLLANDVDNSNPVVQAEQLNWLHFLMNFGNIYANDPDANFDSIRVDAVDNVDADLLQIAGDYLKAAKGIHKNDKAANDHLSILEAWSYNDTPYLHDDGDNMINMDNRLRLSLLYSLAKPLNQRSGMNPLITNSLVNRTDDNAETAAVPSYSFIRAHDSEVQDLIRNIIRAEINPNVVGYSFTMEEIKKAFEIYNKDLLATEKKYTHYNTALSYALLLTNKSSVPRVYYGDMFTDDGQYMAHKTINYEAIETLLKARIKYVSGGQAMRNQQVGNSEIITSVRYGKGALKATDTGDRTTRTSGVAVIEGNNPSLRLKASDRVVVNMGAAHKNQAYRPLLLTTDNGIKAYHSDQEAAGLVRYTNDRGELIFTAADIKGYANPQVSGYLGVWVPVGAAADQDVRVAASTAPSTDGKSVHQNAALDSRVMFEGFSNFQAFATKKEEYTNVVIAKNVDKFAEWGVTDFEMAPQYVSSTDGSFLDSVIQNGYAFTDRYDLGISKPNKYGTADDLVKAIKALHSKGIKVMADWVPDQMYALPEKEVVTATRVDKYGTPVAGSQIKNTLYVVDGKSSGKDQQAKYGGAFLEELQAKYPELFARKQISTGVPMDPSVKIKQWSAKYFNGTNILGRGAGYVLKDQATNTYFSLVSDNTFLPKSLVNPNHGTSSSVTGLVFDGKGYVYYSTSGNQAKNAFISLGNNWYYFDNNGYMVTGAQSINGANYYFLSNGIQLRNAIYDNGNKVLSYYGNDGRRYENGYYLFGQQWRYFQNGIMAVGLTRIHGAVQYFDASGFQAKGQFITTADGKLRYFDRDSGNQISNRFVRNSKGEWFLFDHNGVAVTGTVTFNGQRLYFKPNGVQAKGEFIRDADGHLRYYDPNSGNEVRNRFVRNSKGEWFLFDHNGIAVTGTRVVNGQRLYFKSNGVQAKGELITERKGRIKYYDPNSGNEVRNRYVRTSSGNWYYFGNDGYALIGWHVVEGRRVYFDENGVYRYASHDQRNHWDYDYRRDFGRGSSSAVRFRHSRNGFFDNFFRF
Method: as §1
Similarly, recombinant glucosyltransferase C (rGTFC) was prepared by using Escherichia coli XL-2 strain harboring a plasmid pSK6 having a gene encoding glucosyltransferase C (GTFC) of Streptococcus mutans and put in use in later experiments.
The rGTFB having a specific activity of 503 mU/mg protein and the rGTFC having a specific activity of 6.3 to 22.3 mU/mg protein were used as a mixture. The activity 1U represents activity of an enzyme in converting glucose ([…]) derived from sucrose into glucan per minute. Protein was quantified by using the bicinchonine acid method (BCA method) (BCA protein assay kit, manufactured by PIERCE).
(§3) With 2 mL of 0.1M KPB (pH6.0) containing 1% sucrose-containing 0.1% dextran T10, rGTFB or rGTFC (amount corresponding to 15 mU (average value)) obtained in Example 2, and each of the above samples (final concentration: 0.1 mg/mL) were mixed. The mixture was incubated at 37° C. overnight. The turbidity (550 nm) of the resultant reaction solution was measured to obtain the yield of glucan insoluble in water. The lower yield of the glucan insoluble in water (in other words, turbidity is low) means that the activity of glucosyltransferase is more inhibited. Note that the control (cont) shown in the figures represents turbidity in the absence of the aforementioned samples.
as §3, with “1% sucrose and” for “1% sucrose-containing”, “Example 2” for “Example 2,”, “concentration: 0.05” for “concentration: 0.1”, “inhibited. […]” for “inhibited. Note that the control (cont) shown in the figures represents turbidity in the absence of the aforementioned samples.”

[3] = system: glucosyltransferase (GTF); experiment: Overall GTF inhibitory activity, conclusion from the rGTFB and rGTFC tests; type: biochemical, Streptococcus mutans; settings: summary of Examples 3 and 4, GTFB and GTFC
Method: as §3
as §3, with “1% sucrose and” for “1% sucrose-containing”, “Example 2” for “Example 2,”, “concentration: 0.05” for “concentration: 0.1”

[4] = sample final concentration 0.1 mg/mL, FIG. 7
[5] = sample final concentration 0.1 mg/mL, FIG. 8

O=C(O[C@@H]1Cc2c(O)cc(O)c(Cc3c(O)cc(O)c4c3O[C@H](c3cc(O)c(O)c(O)c3)[C@H](OC(=O)c3cc(O)c(O)c(O)c3)C4)c2O[C@@H]1c1cc(O)c(O)c(O)c1)c1cc(O)c(O)c(O)c1 [OHBF-A, oolong homobisflavan-A]
effect on the activity of GTFB (yield of water-insoluble glucan, turbidity) [1, 4]: inhibits | effect on the activity of GTFC (yield of water-insoluble glucan, turbidity) [2, 5]: slightly enhances

O=C(O[C@@H]1Cc2c(cc(O)c(Cc3c(O)cc(O)c4c3O[C@H](c3cc(O)c(O)c(O)c3)[C@H](OC(=O)c3cc(O)c(O)c(O)c3)C4)c2O)O[C@@H]1c1cc(O)c(O)c(O)c1)c1cc(O)c(O)c(O)c1 [OHBF-B, oolong homobisflavan-B]
effect on the activity of GTFB (yield of water-insoluble glucan, turbidity) [1, 4]: inhibit | effect on the activity of GTFC (yield of water-insoluble glucan, turbidity) [2, 5]: inhibit | GTF inhibitory activity (overall) [3]: high

O=C(O[C@@H]1Cc2c(O)cc(O)c(Cc3c(O)c(Cc4c(O)c(Cc5c(O)cc(O)c6c5O[C@H](c5cc(O)c(O)c(O)c5)[C@H](OC(=O)c5cc(O)c(O)c(O)c5)C6)c(O)c5c4O[C@H](c4cc(O)c(O)c(O)c4)[C@H](OC(=O)c4cc(O)c(O)c(O)c4)C5)c4c(c3O)C[C@@H](OC(=O)c3cc(O)c(O)c(O)c3)[C@@H](c3cc(O)c(O)c(O)c3)O4)c2O[C@@H]1c1cc(O)c(O)c(O)c1)c1cc(O)c(O)c(O)c1 [OHBF-Tet-2, oolong homobisflavan-tetramer-2]
effect on the activity of GTFB (yield of water-insoluble glucan, turbidity) ([1]; sample final concentration 0.05 mg/mL, FIG. 9): significant inhibitory effect on GTFB was not confirmed | effect on the activity of GTFC (yield of water-insoluble glucan, turbidity) ([2]; sample final concentration 0.05 mg/mL, FIG. 10): slightly inhibited

O=C(O[C@@H]1Cc2c(O)cc(O)cc2O[C@@H]1c1cc(O)c(O)c(O)c1-c1c([C@H]2Oc3cc(O)cc(O)c3C[C@H]2OC(=O)c2cc(O)c(O)c(O)c2)cc(O)c(O)c1O)c1cc(O)c(O)c(O)c1 [TSN-A, theasinensin A, reference compound]
effect on the activity of GTFB (yield of water-insoluble glucan, turbidity) [1, 4]: substantially no effect | effect on the activity of GTFC (yield of water-insoluble glucan, turbidity) [2, 5]: extremely enhances
